From US9895345B2, “Use of Lappaol F to inhibit tumor cell growth” (The Research Foundation Foundation for the State University …, priority 2013, dated 2018)
“Also recorded” adds a separate entry of the source.

What was measured:
[1] = test system: MCF-7 cells; experiment: MTT cell proliferation assay; type: cell-based, Human; conditions: read-out: estimated absolute EC50 of cell growth suppression
Procedure: (§1) MTT cell proliferation assays were performed as follows. Briefly, cells seeded in 12-well plate with or without drug treatment were incubated with 0.5 mg/ml 3-[4, 5-dimethylthiazol-2-yl]-2, 5-diphenyl tetrazolium bromide (MTT) for 1-4 hours. The resulting formazan precipitate was dissolved in isopropanol with 0.04 M HCl. Absorbance was read with a Bio-Rad SmartSpec 3100 at 570 nm with background subtraction read at 690 nm.

[2] = test system: MDA-MB-231 cells; experiment: MTT cell proliferation assay; type: cell-based, Human; conditions: read-out: estimated absolute EC50 of cell growth suppression
Procedure: as §1

[3] = test system: RKO cells; experiment: MTT cell proliferation assay; type: cell-based, Human; conditions: read-out: estimated absolute EC50 of cell growth suppression
Procedure: as §1

[4] = test system: MCF10A non-cancerous breast epithelial cells; experiment: MTT assay / phase contrast microscopy on non-tumorigenic cells; type: cell-based, Human; conditions: 50 μM, 3 days or prolonged to six days
Procedure: (§2) FIG. 1: A. The chemical structure of Lappaol F. B & C. […] Cells shown were treated with or without Lappaol F (50 μM) for 72 hours. D & E. Results of 3-[4, 5-dimethylthiazol-2-yl]-2, 5-diphenyl tetrazolium bromide (MTT) assays showing Lappaol F inhibits tumor cell growth in time- and dose-dependent manners in different cancer cell lines. F & G. MCF10A non-tumorigenic breast epithelial cells treated with Lappaol F (50 μM) for 3 days (F) or 6 days (G). After treatment, cells were harvested for MTT assays (G) or photographs were taken under a phase contrast microscope (F). H. Results of colony formation assay showing that Lappaol F inhibits colony formation by A549 (lung), HCT116 (colon) and DU145 (prostate) tumor cells. I-N. Results of MTT assays showing Lappaol F suppresses cell growth in leukemia, melanoma and sarcoma cell lines.
as §1

[5] = test system: tumor cell lines of different tissue types; experiment: Initial cytotoxic screening (colony formation, microscopy); type: cell-based, Human; conditions: colon, breast, lung, cervix lines; 50 μM, 72 hours
Procedure: as §2

[6] = test system: HeLa cells; experiment: Flow cytometry cell cycle analysis; type: cell-based, Human; conditions: 50 μM, 72 hrs
Procedure: (§3) FIG. 2: Lappaol F induces G1 and G2 cell cycle arrest. (A) Flow cytometry cell cycle analyses performed on cells treated with vehicle (DMSO) or Lappaol F (50 μM) for 72 hrs. (B) DAPI staining of RKO cells treated with Lappaol F (50 μM) for 72 hours. The number of mitotic cells over the total cells (mitotic index, MI) is also shown.
(§4) Cell cycle profile was determined by flow cytometry as follows. For determining the mitotic index, cells treated with or without Lappaol F were stained with 4′, 6-diamidino-2-phenylindole (DAPI). The number of mitotic cells was counted under a fluorescence microscope. Over 600 cells were counted in each sample and experiments were repeated at least three times.

[7] = test system: MCF-7 cells; experiment: Flow cytometry cell cycle analysis; type: cell-based, Human; conditions: 50 μM, 72 hrs
Procedure: as §3, §4

[8] = test system: MDA-MB-231 cells; experiment: Flow cytometry cell cycle analysis; type: cell-based, Human; conditions: 50 μM, 72 hrs
Procedure: as §3, §4

[9] = test system: RKO cells; experiment: Flow cytometry cell cycle analysis; type: cell-based, Human; conditions: 50 μM, 72 hrs
Procedure: as §3, §4

[10] = test system: RKO cells; experiment: Mitotic index by DAPI staining; type: cell-based, Human; conditions: 50 μM, 72 hours
Procedure: as §3, §4

[11] = test system: p21 promoter in RKO p53-deficient (p53-/-) cells; experiment: p21 promoter luciferase assay; type: cell-based, Human; conditions: 50 μM, 24 hours
Procedure: (§5) FIG. 6: Lappaol F induces p21-promoter activation in cells with wild-type p53 and defective-p53. A&B MCF-7, MDA-MB-231 and RKO cells were untreated (DMSO) or treated with Lappaol F (50 μM) for 48 hrs; cells were then split into two parts; one part was used to analyze p21 mRNA expression by Northern blotting (A) and another part was utilized for p21 protein analysis by Western blotting (B). A full-length p21 cDNA was used as a probe for Northern blot analysis. C & D. p21 promoter luciferase activity in Lappaol F-treated and untreated cells with different p53 status. RKO and MCF-7 cells express the wild type-p53 protein whereas MDA-MB-231 expressing the mutant-p53. Hela cells harbor human papilloma virus; and p53 protein is not functional in these cells. Cells, transfected with p21 promoter luciferase construct, were untreated (DMSO) or treated with Lappaol F (50 μM) for 24 hours then analyzed for luciferase activity.
(§6) Luciferase assays were performed as follows. Briefly, cells transiently transfected with the p21-promoter luciferase construct were treated with or without Lappaol F (50 μM). Twenty-four hours later, luciferase activity of each cell lysate was analyzed using the Luciferase assay system (Thermo Scientific, Rockford, Ill.) with LUMAT LB9507 luminometer (Berthold Technologies, Germany).

[12] = test system: p21 promoter in RKO p53-proficient (p53+/+) cells; experiment: p21 promoter luciferase assay; type: cell-based, Human; conditions: 50 μM, 24 hours
Procedure: as §5, §6

[13] = test system: p21 promoter (RKO, MCF-7, Hela, MDA-MB-231); experiment: p21 promoter luciferase assay in four cell lines; type: cell-based, Human; conditions: 50 μM, 24 hours
Procedure: as §5, §6

[14] = test system: HeLa tumor xenografts; experiment: HeLa xenograft tumor growth in nude mice; type: in vivo, BALB/c nude mice
Text: All animal studies were approved and performed according to Animal Care and Use Guidelines of the Animal Ethics Committee at Guangzhou University of Chinese Medicine (Document No. syxk (Yue) 2008-0001). BALB/c nude mice (female, 4-5 weeks old) were first subcutaneously injected with 5×10^6 of HeLa cells on the back to establish tumor xenografts. Nine-days after tumor cell injection, mice with tumor volume of 90 mm^3-290 mm^3 were randomized into 3 groups; the average initial tumor volumes in each treatment group of mice were 161.28±23.9 mm^3 (for vehicle control), 160.7±17 7 mm^3 (for mice treated with Lappaol F 5 mg/kg) and 144.5±20 5 mm^3 (for mice treated with Lappaol F 10 mg/kg), respectively. Mice were then treated with Lappaol F (5 mg/kg/d, N=7; or 10 mg/kg/d, N=6) or with equivalent volume of vehicle (5% DMSO plus 5% Tween 80 in 5% glucose solution, 5 mL/kg/day, N=7) by intravenous injection for 15 days. Tumor size was monitored by measuring two perpendicular diameters with a caliper every 4 days. The tumor volume was calculated as volume=length×width^2×0.5. Cases of death and body weight in mice were monitored daily. The animal experiments were terminated on day 15 (tumor size exceeded a mean diameter of 20 mm in control animals) by sacrificing mice according to the guidelines. Tumor xenografts were then stripped and weighed. All results were expressed as Mean±standard error of the mean (SEM). Effects of various treatments were analyzed using the ONE-WAY ANOVA analysis and P-values <0.05 were considered statistically significant.

[15] = test system: caspases 8 and 9 in MCF-7 cells; experiment: Caspase activation by Western blotting; type: cell-based, Human; conditions: 50 μM
Procedure: (§7) FIG. 4: Effect of Lappaol F on caspase activation. The indicated cells were treated with vehicle (DMSO) or Lappaol F (50 μM) for indicated time. Activation of caspases 8, 9 and 3 (indicated by reduced levels of procaspases) was analyzed by Western blotting using indicated antibodies. “C”: vehicle-treated control.
(§8) Western blotting was done by standard protocols. Sources of the antibodies are as follows: antibodies for p21 and GAPDH were from Santa Cruz Biotechnology (Santa Cruz, Calif.); cyclin B1 antibody was from BD bioscience (San Jose, Calif.); p27 antibody was from Cell Signaling Technology (Danvers, Mass.). CDK1 and CDK2 were from Assay Biotechnology (Sunnyvale, Calif.). Northern blot analysis was performed. and a full-length p21 cDNA was used as a probe for detecting the expression of p21 mRNA.

[16] = test system: caspases 8, 9 and 3 in HeLa cells; experiment: Caspase activation by Western blotting; type: cell-based, Human; conditions: 50 μM
Procedure: as §7, §8

[17] = test system: caspases 8, 9 and 3 in MDA-MB-231 cells; experiment: Caspase activation by Western blotting; type: cell-based, Human; conditions: 50 μM
Procedure: as §7, §8

[18] = test system: p21, p27, CDK2, cyclin B and CDK1; experiment: Cell cycle regulatory protein expression by Western blotting; type: cell-based, Human; conditions: 50 μM, different cell lines
Procedure: FIG. 3: Regulation of key cell cycle regulatory proteins by Lappaol F. A-D. The indicated cells were treated with vehicle (DMSO) or Lappaol F (50 μM) for indicated time and protein expression of different cell cycle regulatory protein was analyzed by Western blotting. “C”: vehicle-treated control.
as §8

[19] = test system: c-Myc, MDM2 and HuR; experiment: Oncogenic protein expression by Western blotting; type: cell-based, Human; conditions: 50 μM
Procedure: FIG. 8: Lappaol F down regulates the expression of several oncogenic proteins commonly overexpressed in human cancers and linked to oncogenic transformation. A-C. Lappaol F suppresses the expression of c-Myc (A), MDM2 (B) and HuR (C). Cells were untreated (“C”) or treated with Lappaol F (50 μM) for the indicated times and Western blot analyses were performed using the indicated antibodies.
as §8

[20] = test system: wild-type p53; experiment: Wild-type p53 expression by Western blotting; type: cell-based, Human
Procedure: (§9) FIG. 7: Lappaol F suppresses expression of mutant-p53 by reducing its half-life. A-C. Lappaol F has minimal effect on wild-type p53 protein expression in cells (MCF-7 and RKO) expressing wild-type p53 (A & C); however, Lappaol F strongly reduces mutant-p53 protein expression in MDA-MB-231, MDA-MB-468 and T47D cells (B & C). D & E. Treatment of Lappaol F reduces mutant-p53 protein half-life in MDA-MB-231 cells. Cells were first treated with or without with Lappaol F (50 μM) for 24 hours, cycloheximide (50 μg/ml) was then added into the cell culture medium for 0-8 hours and cells were harvested at 0, 2, 4, 6 and 8 hours after cycloheximide was added. Samples were subjected to Western blot analysis and the half-life of mutant p53 for cells treated with or without Lappaol F was determined F & G. Lappaol F decreases mutant p53 protein half-life in T47D cells. Mutant-p53 half-life was determined as described.
(§10) Western blotting was done by standard protocols. Sources of the antibodies are as follows: antibodies for p21 and GAPDH were from Santa Cruz Biotechnology (Santa Cruz, Calif.); cyclin B1 antibody was from BD bioscience (San Jose, Calif.); p27 antibody was from Cell Signaling Technology (Danvers, Mass.). CDK1 and CDK2 were from Assay Biotechnology (Sunnyvale, Calif.). […]

[21] = test system: mutant-p53; experiment: Mutant-p53 expression by Western blotting; type: cell-based, Human
Procedure: as §9, §10

## COc1cc([C@H]2Oc3c(OC)cc(C[C@H]4COC(=O)[C@@H]4Cc4cc(OC)c5c(c4)[C@H](CO)[C@@H](c4ccc(O)c(OC)c4)O5)cc3[C@@H]2CO)ccc1O [Lappaol F]
[1]
  EC50: 13.3 µM
[2]
  EC50: 16.8 µM
[3]
  EC50: 25.2 µM
[4]
  cytotoxicity towards MCF10A non-cancerous breast epithelial cells: minimal cytotoxicity
[5]
  growth inhibitory effect against tumor cell lines: strong growth inhibitory effect
[6]
  cell cycle arrest phase: predominantly arrested in 2N G1-phase
  sub-2N cell death population (sub-G1): 15%
[7]
  cell cycle arrest phase: predominantly arrested in 2N G1-phase
[8]
  cell cycle arrest phase: mainly arrested in 4N G2- (or M)-phase
[9]
  cell cycle arrest phase: mainly arrested in 4N G2- (or M)-phase
[10]
  mitotic nuclei (mitotic index): no mitotic nuclei were observed
[11]
  upregulation of p21 promoter activity: 8.3 folds
[12]
  induction of the p21 promoter: 3.5 fold
[13]
  p21 promoter activity: significantly enhanced
[14]; 5 mg/kg/day i.v., 15 days
  inhibition of tumor growth relative to vehicle: 54%
[14]; 10 mg/kg/day i.v., 15 days
  inhibition of tumor growth relative to vehicle: 64%
[14]; 5 and 10 mg/kg/day i.v., 15 days
  lethality / body weight change in mice: without significant body weight changes; also recorded: did not observe lethality or weight loss
[14]; intraperitoneal injection
  effect on HeLa xenografts by intraperitoneal injection: did not show any significant effect
[15]
  caspase activation: no clear evidence of caspase activation
[16]
  caspase activation: elicited caspases 9 and 3 activation
[17]
  caspase activation: activation of caspases 8, 9 and 3 was observed
[18]
  expression levels of CDK inhibitors p21 and p27: strikingly elevated
  levels of CDK2, cyclin B and CDK1: clearly reduced
[19]
  expression of c-Myc, MDM2 and HuR oncoproteins: strongly down-regulates
[20]; MCF-7 cells
  levels of wild-type p53: no significant influence
[20]; RKO cells
  expression levels of wild-type-p53: did not significantly affect
[21]; MDA-MB-231 cells
  levels of mutant-p53: significantly reduced
[21]; MDA-MB-468 and T47D cells
  mutant-p53 expression: strongly inhibited
